Among the data in EP4104902B1, “COMPOUNDS AND M[…] SAME” (priority 2020, dated 2021) are IC50 values, retold here.

Some results are limits rather than exact numbers.

The experiment has as its system recombinant rabies virus 1088 strain expressing Gaussia Luciferase (GLuc) (1088/GLuc). It counts as cell-based. Particulars: read-out: Anti-rabies activity.

For `N=C(N)NCCCNC(=O)[C@]12NC[C@@H]3C[C@H]1CN(Cc1cccc4ccccc14)[C@H]2[C@@H]3CCc1ccccc1` (relative stereo) [IB-354], the IC50 was below 5 µM. For the molecule `CC(C)CC[C@@H]1[C@@H]2CN[C@@]3(C(=O)NCCC(N)=O)[C@@H](C2)CN(CC2CCCCC2)[C@@H]13` (relative stereo) [IB-357], the IC50 was 10 to 30 µM.

For `CC(C)CC[C@@H]1[C@@H]2CN[C@@]3(C(=O)NCCCNC(=N)N)[C@@H](C2)CN(CC2CCCCC2)[C@@H]13` (relative stereo) [IB-361], the IC50 fell in the range of 10 to 30 µM. The result for `N=C(N)NCCCNC(=O)[C@]12NC[C@@H]3C[C@H]1CN(CC1CCCCC1)[C@H]2[C@@H]3CCc1ccccc1` (relative stereo) [IB-362] reads below 5 µM; that for `CC(C)CC[C@@H]1[C@@H]2CN[C@@]3(C(=O)NCCC(N)=O)[C@@H](C2)CN(Cc2ccc(F)cc2)[C@@H]13` (relative stereo) [IB-365], 10 to 30 µM. The result for `CC(C)CC[C@@H]1[C@@H]2CN[C@@]3(C(=O)NCCCNC(=N)N)[C@@H](C2)CN(Cc2ccc(F)cc2)[C@@H]13` (relative stereo) [IB-369] reads 10 to 30 µM; that for `CC(C)CC[C@@H]1[C@@H]2CN[C@@]3(C(=O)NCC(C)C)[C@@H](C2)CN(CCO)[C@@H]13` (relative stereo) [IB-372], 10 to 30 µM.

For the molecule `CC(C)CC[C@@H]1[C@@H]2CN[C@@]3(C(=O)NCC(C)C)[C@@H](C2)CN(CC(C)C)[C@@H]13` (relative stereo) [IB-378], the IC50 is below 5 µM.

As for `CC(C)CCN1C[C@@H]2C[C@H]3CN[C@]2(C(=O)NCCC(=O)O)[C@@H]1[C@@H]3Cc1cccc2ccccc12` (relative stereo) [IB-381], the IC50 is 10 to 30 µM. The figure for `CC(C)CNC(=O)[C@]12NC[C@@H]3C[C@H]1CN(CCC(=O)O)[C@H]2[C@@H]3CCc1ccccc1` (relative stereo) [IB-430] is below 5 µM; for `CC(C)CNC(=O)[C@]12NC[C@@H]3C[C@H]1CN(CCC(=O)O)[C@H]2[C@@H]3CO` (relative stereo) [IB-431] it is 10 to 30 µM. The result for `CC(C)C[C@@H]1[C@@H]2CN[C@@]3(C(=O)NCc4ccc(O)cc4)[C@@H](C2)CN(CCc2ccccc2)[C@@H]13` (relative stereo) [IB-449] reads 10 to 30 µM.

Consider `CC(C)C[C@@H]1[C@@H]2CN[C@@]3(C(=O)NCc4ccc(O)cc4)[C@@H](C2)CN(Cc2ccc(F)cc2)[C@@H]13` (relative stereo) [IB-458], for which the IC50 was 10 to 30 µM. As to `O=C(NCCO)[C@]12NC[C@@H]3C[C@H]1CN(Cc1cccc4ccccc14)[C@H]2[C@@H]3Cc1ccc(O)cc1` (relative stereo) [IB-459], the IC50 lay in the range of 10 to 30 µM. The figure for `CC(C)CC[C@@H]1[C@@H]2CN[C@@]3(C(=O)NCCO)[C@@H](C2)CN(CCc2ccccc2)[C@@H]13` (relative stereo) [IB-461] is 10 to 30 µM; for `CC(C)C[C@@H]1[C@@H]2CN[C@@]3(C(=O)NCc4ccc(O)cc4)[C@@H](C2)CN(Cc2ccccc2)[C@@H]13` (relative stereo) [IB-464] it is below 5 µM. The figure for `CC(C)CC[C@@H]1[C@@H]2CN[C@@]3(C(=O)NCc4ccc(O)cc4)[C@@H](C2)CN(CC(C)C)[C@@H]13` (relative stereo) [IB-465] is 10 to 30 µM; for `O=C(NCc1ccc(O)cc1)[C@]12NC[C@@H]3C[C@H]1CN(CCO)[C@H]2[C@@H]3Cc1cccc2ccccc12` (relative stereo) [IB-470] it is 10 to 30 µM; for `NC(=O)CCNC(=O)[C@]12NC[C@@H]3C[C@H]1CN(CC1CCCCC1)[C@H]2[C@@H]3Cc1cccc2ccccc12` (relative stereo) [IB-522] it is 10 to 30 µM.

As to `NC(=O)CCNC(=O)[C@]12NC[C@@H]3C[C@H]1CN(Cc1ccc(F)cc1)[C@H]2[C@@H]3Cc1cccc2ccccc12` (relative stereo) [IB-525], the IC50 lay in the range of 10 to 30 µM. Turning to `O=C(NCc1cccc2ccccc12)[C@]12NC[C@@H]3C[C@H]1CN(CCO)[C@H]2[C@@H]3Cc1ccc(O)cc1` (relative stereo) [IB-527], the IC50 is 10 to 30 µM. The figure for `CC(C)CC[C@@H]1[C@@H]2CN[C@@]3(C(=O)NCCc4ccccc4)[C@@H](C2)CN(CCO)[C@@H]13` (relative stereo) [IB-531] is 10 to 30 µM; for `NC(=O)CCNC(=O)[C@]12NC[C@@H]3C[C@H]1CN(Cc1ccccc1)[C@H]2[C@@H]3CCc1ccccc1` (relative stereo) [IB-535] it is 10 to 30 µM; for `CC(C)CN1C[C@@H]2C[C@H]3CN[C@]2(C(=O)NCCc2ccccc2)[C@@H]1[C@@H]3Cc1ccc(O)cc1` (relative stereo) [IB-536] it is 10 to 30 µM. The figure for `CC(C)CN1C[C@@H]2C[C@H]3CN[C@]2(C(=O)NCCC(N)=O)[C@@H]1[C@@H]3CCc1ccccc1` (relative stereo) [IB-539] is 10 to 30 µM; for `CC(C)C[C@@H]1[C@@H]2CN[C@@]3(C(=O)NCCc4ccccc4)[C@@H](C2)CN(Cc2ccc(O)cc2)[C@@H]13` (relative stereo) [IB-540] it is 10 to 30 µM. The result for `CC(C)C[C@@H]1[C@@H]2CN[C@@]3(C(=O)NCc4cccc5ccccc45)[C@@H](C2)CN(Cc2ccc(O)cc2)[C@@H]13` (relative stereo) [IB-541] reads below 5 µM; that for `CC(C)CC[C@@H]1[C@@H]2CN[C@@]3(C(=O)NCCc4ccccc4)[C@@H](C2)CN(Cc2ccc(O)cc2)[C@@H]13` (relative stereo) [IB-544], 10 to 30 µM.

For the molecule `O=C(NCc1ccc(F)cc1)[C@]12NC[C@@H]3C[C@H]1CN(CCO)[C@H]2[C@@H]3Cc1ccc(O)cc1` (relative stereo) [IB-549], the IC50 was 10 to 30 µM. The result for `CCCCCCNC(=O)[C@]12NC[C@@H]3C[C@H]1CN(CCC(C)C)[C@H]2[C@@H]3CC(C)C` (relative stereo) [IB-551] reads below 5 µM; that for `CC(C)CCN1C[C@@H]2C[C@H]3CN[C@]2(C(=O)NCc2ccc(F)cc2)[C@@H]1[C@@H]3CC(C)C` (relative stereo) [IB-553], below 5 µM. The result for `CCCCCCNC(=O)[C@]12NC[C@@H]3C[C@H]1CN(Cc1ccccc1)[C@H]2[C@@H]3Cc1ccccc1` (relative stereo) [IB-562] reads 10 to 30 µM; that for `O=C(NCc1ccc(F)cc1)[C@]12NC[C@@H]3C[C@H]1CN(Cc1ccccc1)[C@H]2[C@@H]3CCc1ccccc1` (relative stereo) [IB-568], 10 to 30 µM. On to `CC(C)CCNC(=O)[C@]12NC[C@@H]3C[C@H]1CN(Cc1ccc(O)cc1)[C@H]2[C@@H]3Cc1ccccc1` (relative stereo) [IB-574], for which the IC50 fell in the range of 10 to 30 µM. The result for `CC(C)CNC(=O)[C@]12NC[C@@H]3C[C@H]1CN(CCC(=O)O)[C@H]2[C@@H]3Cc1cccc2ccccc12` (relative stereo) [IB-575] reads 10 to 30 µM. In the case of `CC(C)CCN1C[C@@H]2C[C@H]3CN[C@]2(C(=O)NCc2ccc(O)cc2)[C@@H]1[C@@H]3CCc1ccccc1` (relative stereo) [IB-576], the IC50 was in the range of 10 to 30 µM. On to `CC(C)CCN1C[C@@H]2C[C@H]3CN[C@]2(C(=O)NCc2ccc(O)cc2)[C@@H]1[C@@H]3Cc1ccccc1` (relative stereo) [IB-577], for which the IC50 is 10 to 30 µM. The figure for `CC(C)C[C@@H]1[C@@H]2CN[C@@]3(C(=O)NCc4ccc(O)cc4)[C@@H](C2)CN(CC2CCCCC2)[C@@H]13` (relative stereo) [IB-581] is 10 to 30 µM.

Turning to `CC(C)CC[C@@H]1[C@@H]2CN[C@@]3(C(=O)NCc4ccc(O)cc4)[C@@H](C2)CN(Cc2ccc(F)cc2)[C@@H]13` (relative stereo) [IB-582], the IC50 is 10 to 30 µM. As to `O=C(NCc1ccc(O)cc1)[C@]12NC[C@@H]3C[C@H]1CN(Cc1ccc(F)cc1)[C@H]2[C@@H]3Cc1ccccc1` (relative stereo) [IB-583], the IC50 is 10 to 30 µM. As for `CC(C)C[C@@H]1[C@@H]2CN[C@@]3(C(=O)NCc4cccc5ccccc45)[C@@H](C2)CN(CCO)[C@@H]13` (relative stereo) [IB-585], the IC50 is 10 to 30 µM. The result for `O=C(NCCO)[C@]12NC[C@@H]3C[C@H]1CN(Cc1cccc4ccccc14)[C@H]2[C@@H]3Cc1ccccc1` (relative stereo) [IB-588] reads below 5 µM.

Regarding `O=C(NCCO)[C@]12NC[C@@H]3C[C@H]1CN(CCc1ccccc1)[C@H]2[C@@H]3Cc1cccc2ccccc12` (relative stereo) [IB-593], the IC50 lay in the range of 10 to 30 µM. The result for `O=C(NCCO)[C@]12NC[C@@H]3C[C@H]1CN(Cc1ccccc1)[C@H]2[C@@H]3Cc1cccc2ccccc12` (relative stereo) [IB-602] reads 10 to 30 µM. In the case of `O=C(O)CCNC(=O)[C@]12NC[C@@H]3C[C@H]1CN(CCO)[C@H]2[C@@H]3Cc1cccc2ccccc12` (relative stereo) [IB-610], the IC50 lay within 10 to 30 µM. The figure for `CC(C)CCN1C[C@@H]2C[C@H]3CN[C@]2(C(=O)NCCC(=O)O)[C@@H]1[C@@H]3CC(C)C` (relative stereo) [IB-611] is 10 to 30 µM. The result for `CC(C)CC[C@@H]1[C@@H]2CN[C@@]3(C(=O)NCCC(=O)O)[C@@H](C2)CN(CC2CCCCC2)[C@@H]13` (relative stereo) [IB-613] reads 10 to 30 µM; that for `O=C(O)CCNC(=O)[C@]12NC[C@@H]3C[C@H]1CN(CC1CCCCC1)[C@H]2[C@@H]3Cc1cccc2ccccc12` (relative stereo) [IB-614], 10 to 30 µM; that for `O=C(O)CCNC(=O)[C@]12NC[C@@H]3C[C@H]1CN(Cc1ccccc1)[C@H]2[C@@H]3Cc1cccc2ccccc12` (relative stereo) [IB-616], 10 to 30 µM. As for `O=C(NCc1ccccc1)[C@]12NC[C@@H]3C[C@H]1CN(CCO)[C@H]2[C@@H]3CCc1ccccc1` (relative stereo) [IB-618], the IC50 is below 5 µM.

Take `O=C(NCc1ccccc1)[C@]12NC[C@@H]3C[C@H]1CN(CCO)[C@H]2[C@@H]3Cc1ccccc1` (relative stereo) [IB-619]: the IC50 is 10 to 30 µM.

Consider `CC(C)CNC(=O)[C@]12NC[C@@H]3C[C@H]1CN(CCO)[C@H]2[C@@H]3Cc1cccc2ccccc12` (relative stereo) [IB-621], for which the IC50 is below 5 µM.

`CC(C)CNC(=O)[C@]12NC[C@@H]3C[C@H]1CN(CCc1ccccc1)[C@H]2[C@@H]3Cc1ccc(O)cc1` (relative stereo) [IB-625]: the IC50 was in the range of 10 to 30 µM. With `CC(C)CNC(=O)[C@]12NC[C@@H]3C[C@H]1CN(Cc1ccc(F)cc1)[C@H]2[C@@H]3CC(C)C` (relative stereo) [IB-630], the IC50 is below 5 µM.
